On to `CCOc1ccc2c(c1)C(C)=CC(C)(C)N2` [6-ethoxy-2,2,4-trimethyl-1H-quinoline], for which the flash point is 107.00 °C. Consider `CC1=C(C(=O)Nc2ccccc2)SCCO1` [6-methyl-N-phenyl-2,3-dihydro-1,4-oxathiine-5-carboxamide], for which the flash point stood at 203.00 °C.

Consider `Cc1ccc2oc(=O)ccc2c1` [6-methylchromen-2-one], for which the flash point was found to be 130.00 °C. The value for `CC(C)CCCCCOC(=O)COc1cc(Cl)c(Cl)cc1Cl` [6-methylheptyl 2-(2,4,5-trichlorophenoxy)acetate] was 69.00 °C; that for `Cc1c2ccccc2c(C)c2c1ccc1ccccc12` [7,12-dimethylbenzo[a]anthracene] was 86.00 °C. As for `Cc1ccc2cccnc2c1` [7-methylquinoline], the flash point turned out to be 110.00 °C. As for `C=C(C)C(=O)OCCCCCCCC(C)C` [8-methylnonyl 2-methylprop-2-enoate], the flash point worked out at 121.00 °C. The value for `Cc1cccc2cccnc12` [8-methylquinoline] was 105.00 °C. As for `C1=C\CCCC\C=C/1` [(1Z,3Z)-cycloocta-1,3-diene], the flash point was 35.00 °C. Take `CC1(C)OCC(CO)O1` (stereo not drawn) [(2,2-dimethyl-1,3-dioxolan-4-yl)methanol]: the flash point was 80.00 °C.

Take `C=CC(=O)OCC(C)(C)COC(=O)C=C` [(2,2-dimethyl-3-prop-2-enoyloxypropyl) prop-2-enoate]: the flash point turned out to be 115.00 °C. `CCCCCCCC(=O)Oc1c(Br)cc(C#N)cc1Br` [(2,6-dibromo-4-cyanophenyl) octanoate]: the flash point amounted to 102.00 °C. The value for `CC(C)(C)c1ccccc1OP(=O)(Oc1ccccc1)Oc1ccccc1` [(2-tert-butylphenyl) diphenyl phosphate] was 224.00 °C; that for `C1O[C@H]1[C@H]1CO1` [(2R)-2-[(2R)-oxiran-2-yl]oxirane] was 46.00 °C; that for `OC[C@@H](O)[C@@H](O)[C@H](O)[C@@H](O)CO` [(2R,3R,4R,5S)-hexane-1,2,3,4,5,6-hexol] was 283.00 °C. Under `CC(C)=CCC/C(C)=C\CO` [(2Z)-3,7-dimethylocta-2,6-dien-1-ol] stands 107.00 °C; under `CC(C)C(=O)OCC(C)(C)C(O)C(C)C` (stereo not drawn) [(3-hydroxy-2,2,4-trimethylpentyl) 2-methylpropanoate], 120.00 °C. `CN(C)C(=O)/N=N/C(=O)N(C)C` [(3E)-3-(dimethylcarbamoylimino)-1,1-dimethylurea] came in with a flash point of 40.00 °C. The value for `C=C/C=C/C` [(3E)-penta-1,3-diene] was -29.00 °C; that for `CC1CCC(CO)CC1` (stereo not drawn) [(4-methylcyclohexyl)methanol] was 112.00 °C; that for `C=C(C)[C@H]1CC=C(C)CC1` [(4R)-1-methyl-4-prop-1-en-2-ylcyclohexene] was 48.00 °C.

With `O=C/C=C/c1ccccc1` [(E)-3-phenylprop-2-enal], the flash point turned out to be 71.00 °C. Under `O=C(O)/C=C/C(=O)O` [(E)-but-2-enedioic acid] stands 273.00 °C.

`NC(=O)/N=N/C(N)=O` [(E)-carbamoyliminourea] showed a flash point of 96.00 °C. `CCCCCCCC/C=C\CCCCCCCC(=O)O` [(Z)-octadec-9-enoic acid]: the flash point was 189.00 °C. Regarding `CSSC` [(methyldisulfanyl)methane], the flash point is 24.00 °C. Under `C1=CCC=C1` [InChI=1S/C5H6/c1-2-4-5-3-1/h1-4H,5H2] stands 25.00 °C; under `NCCNCCN` [N'-(2-aminoethyl)ethane-1,2-diamine], 102.00 °C. Regarding `CNCCCN` [N'-methylpropane-1,3-diamine], the flash point was 36.00 °C. As for `Cc1ccccc1N(C)C` [N,N,2-trimethylaniline], the flash point is 83.00 °C. For `CN(C)CCN(C)C` [N,N,N',N'-tetramethylethane-1,2-diamine], the flash point was found to be 10.00 °C.

With `C=CCN(CC=C)CC=C` [N,N-bis(prop-2-enyl)prop-2-en-1-amine], the flash point was 39.00 °C. The molecule `CCCCN(CCCC)CCCC` [N,N-dibutylbutan-1-amine] came in with a flash point of 85.00 °C. `CCN(CC)C(C)=O` [N,N-diethylacetamide] had a flash point of 77.00 °C.

`CCN(CC)N=O` [N,N-diethylnitrous amide] gave a flash point of 63.00 °C.

For `CN(C)Cc1ccccc1` [N,N-dimethyl-1-phenylmethanamine], the flash point amounted to 57.00 °C. The value for `CN(C)C1CCCCC1` [N,N-dimethylcyclohexanamine] was 42.00 °C; that for `CN(C)N=O` [N,N-dimethylnitrous amide] was 61.00 °C; that for `CCCCCN(CCCCC)CCCCC` [N,N-dipentylpentan-1-amine] was 102.00 °C.

For the molecule `CCCN(CCC)CCC` [N,N-dipropylpropan-1-amine], the flash point turned out to be 37.00 °C. Under `CC(=O)CC(=O)Nc1ccc(C)cc1C` [N-(2,4-dimethylphenyl)-3-oxobutanamide] stands 171.00 °C.

`CCCCOCN(C(=O)CCl)c1c(CC)cccc1CC` [N-(butoxymethyl)-2-chloro-N-(2,6-diethylphenyl)acetamide] had a flash point of 114.00 °C.

In turn, `CCCCN(CC)N=O` [N-butyl-N-ethylnitrous amide] yielded a flash point of 93.00 °C.

In turn, `CCCCN(C)N=O` [N-butyl-N-methylnitrous amide] displayed a flash point of 32.00 °C. Molecule `CCCCNC1CCCCC1` [N-butylcyclohexanamine] had a flash point of 93.00 °C. `O=[N+]([O-])N(Cl)c1ccccc1` [N-chloro-N-phenylnitramide] came in with a flash point of 205.00 °C. Under `CCNc1ccccc1` [N-ethylaniline] stands 85.00 °C; under `CCCCNCC` [N-ethylbutan-1-amine], 18.00 °C; under `CCNC1CCCCC1` [N-ethylcyclohexanamine], 29.00 °C. `CNC(C)Cc1ccccc1` (stereo not drawn) [N-methyl-1-phenylpropan-2-amine] yielded a flash point of 9.00 °C. The value for `CNC(C)=O` [N-methylacetamide] was 108.00 °C; that for `CNc1ccccc1` [N-methylaniline] was 79.00 °C.

The molecule `CCCCCNCCCCC` [N-pentylpentan-1-amine] came in with a flash point of 51.00 °C.

In the case of `c1ccc(Nc2ccccc2)cc1` [N-phenylaniline], the flash point came out at 153.00 °C. Under `CC(C)Nc1ccccc1` [N-propan-2-ylaniline] stands 88.00 °C; under `CCSC(=O)N(CC(C)C)CC(C)C` [S-ethyl N,N-bis(2-methylpropyl)carbamothioate], 116.00 °C. The molecule `CCCN(CCC)C(=O)SCC` [S-ethyl N,N-dipropylcarbamothioate] came in with a flash point of 116.00 °C.

For the molecule `CCSC(=O)N1CCCCCC1` [S-ethyl azepane-1-carbothioate], the flash point stood at 139.00 °C.

Source of the values: a flash point compilation (Sun et al. 2020).
